Source: ChEMBL document CHEMBL6127041, “Dual-target inhibitors based on acetylcholinesterase: Novel agents for Alzheimer's disease” (Eur J Med Chem, 2024)

How the values were obtained:
[1] = biological target: Acetylcholinesterase (Electrophorus electricus, UniProt O42275); experiment: Inhibition of electric eel AChE
[2] = biological target: cGMP-specific 3',5'-cyclic phosphodiesterase (Homo sapiens, UniProt O76074); experiment: Inhibition of PDE5A (unknown origin) using […] as substrate measured after 1 hr by fluorescence polarization assay
[3] = biological target: T1, Acetylcholinesterase (Homo sapiens, UniProt P22303); experiment: Inhibition of AChE (unknown origin) by Ellman's method
T1 sequence (P22303 whole entry): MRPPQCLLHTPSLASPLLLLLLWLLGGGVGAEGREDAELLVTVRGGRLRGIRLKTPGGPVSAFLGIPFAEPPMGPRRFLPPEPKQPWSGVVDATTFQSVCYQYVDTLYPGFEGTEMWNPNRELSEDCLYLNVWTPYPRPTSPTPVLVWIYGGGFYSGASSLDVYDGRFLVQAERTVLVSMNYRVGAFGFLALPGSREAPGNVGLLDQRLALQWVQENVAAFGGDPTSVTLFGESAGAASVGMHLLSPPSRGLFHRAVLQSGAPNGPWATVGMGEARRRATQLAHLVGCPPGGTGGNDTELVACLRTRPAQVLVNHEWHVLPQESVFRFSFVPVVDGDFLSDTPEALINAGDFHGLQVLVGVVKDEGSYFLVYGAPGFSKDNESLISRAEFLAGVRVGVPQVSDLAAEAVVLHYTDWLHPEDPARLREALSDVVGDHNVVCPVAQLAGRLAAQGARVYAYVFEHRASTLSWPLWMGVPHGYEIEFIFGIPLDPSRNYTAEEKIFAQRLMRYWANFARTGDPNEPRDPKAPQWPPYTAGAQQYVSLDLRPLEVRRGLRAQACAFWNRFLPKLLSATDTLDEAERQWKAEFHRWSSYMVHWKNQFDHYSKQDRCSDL

[4] = system: SH-SY5Y; experiment: Cytotoxicity against human SH-SY5Y cells assessed as reduction in cell viability at 10 uM measured after 24 hrs by MTT assay relative to control; format: functional
[5] = biological target: Beta-secretase 1 (Homo sapiens, UniProt P56817); experiment: Inhibition of human BACE-1 by FRET assay
Chain of Beta-secretase 1 (P56817 whole entry): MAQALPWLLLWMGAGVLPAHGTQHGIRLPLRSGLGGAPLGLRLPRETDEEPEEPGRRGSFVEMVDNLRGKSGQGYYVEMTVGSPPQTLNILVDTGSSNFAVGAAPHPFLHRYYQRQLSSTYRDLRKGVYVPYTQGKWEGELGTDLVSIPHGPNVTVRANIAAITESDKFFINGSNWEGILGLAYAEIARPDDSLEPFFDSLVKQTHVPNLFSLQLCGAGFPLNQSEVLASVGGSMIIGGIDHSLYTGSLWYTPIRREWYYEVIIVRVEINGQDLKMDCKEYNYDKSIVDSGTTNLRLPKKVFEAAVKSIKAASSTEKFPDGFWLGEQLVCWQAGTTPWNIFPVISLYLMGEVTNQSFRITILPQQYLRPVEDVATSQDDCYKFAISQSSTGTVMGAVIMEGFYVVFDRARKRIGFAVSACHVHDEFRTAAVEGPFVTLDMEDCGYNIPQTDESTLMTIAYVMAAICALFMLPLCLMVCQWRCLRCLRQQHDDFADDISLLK

[6] = biological target: T1, Acetylcholinesterase
[7] = biological target: High affinity cGMP-specific 3',5'-cyclic phosphodiesterase 9A (Homo sapiens, UniProt O76083); experiment: Inhibition of PDE9A (unknown origin)
Chain of High affinity cGMP-specific 3',5'-cyclic phosphodiesterase 9A (O76083 whole entry): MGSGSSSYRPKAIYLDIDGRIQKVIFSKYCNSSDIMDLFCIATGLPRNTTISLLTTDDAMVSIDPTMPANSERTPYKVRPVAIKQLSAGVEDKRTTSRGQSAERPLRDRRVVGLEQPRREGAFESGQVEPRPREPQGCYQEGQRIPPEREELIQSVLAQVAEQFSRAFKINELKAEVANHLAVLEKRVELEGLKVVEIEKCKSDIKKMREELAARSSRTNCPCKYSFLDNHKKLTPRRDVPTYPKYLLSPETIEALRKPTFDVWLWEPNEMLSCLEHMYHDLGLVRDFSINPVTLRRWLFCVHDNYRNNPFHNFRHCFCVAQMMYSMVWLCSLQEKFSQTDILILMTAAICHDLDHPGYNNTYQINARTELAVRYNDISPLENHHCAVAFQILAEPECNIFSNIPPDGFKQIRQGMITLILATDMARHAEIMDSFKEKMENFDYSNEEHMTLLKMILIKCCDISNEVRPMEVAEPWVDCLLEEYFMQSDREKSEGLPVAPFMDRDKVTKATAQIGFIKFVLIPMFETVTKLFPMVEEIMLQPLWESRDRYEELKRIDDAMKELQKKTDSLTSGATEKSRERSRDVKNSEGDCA

[8] = biological target: Cholinesterase (Homo sapiens, UniProt P06276); experiment: Inhibition of BChE (unknown origin)
Chain of Cholinesterase (P06276 whole entry): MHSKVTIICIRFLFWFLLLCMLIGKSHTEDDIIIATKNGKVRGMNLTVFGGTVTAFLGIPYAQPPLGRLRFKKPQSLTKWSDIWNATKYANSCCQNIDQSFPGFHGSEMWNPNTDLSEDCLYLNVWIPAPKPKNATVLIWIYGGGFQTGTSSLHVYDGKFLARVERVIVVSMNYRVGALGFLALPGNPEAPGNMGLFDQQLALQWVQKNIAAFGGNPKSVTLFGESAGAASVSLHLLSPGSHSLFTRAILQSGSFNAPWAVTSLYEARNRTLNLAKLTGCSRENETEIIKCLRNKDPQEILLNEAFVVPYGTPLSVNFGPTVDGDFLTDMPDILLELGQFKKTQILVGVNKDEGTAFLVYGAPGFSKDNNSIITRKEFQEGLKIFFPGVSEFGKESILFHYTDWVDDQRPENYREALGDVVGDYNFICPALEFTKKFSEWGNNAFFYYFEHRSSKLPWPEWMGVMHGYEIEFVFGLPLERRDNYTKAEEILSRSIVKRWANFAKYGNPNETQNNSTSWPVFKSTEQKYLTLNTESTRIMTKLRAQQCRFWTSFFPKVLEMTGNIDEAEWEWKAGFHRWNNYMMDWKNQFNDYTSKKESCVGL

[9] = biological target: T1, Acetylcholinesterase; experiment: Inhibition of AChE (unknown origin)

Chain of Acetylcholinesterase (Electrophorus electricus, UniProt O42275) (O42275 whole entry): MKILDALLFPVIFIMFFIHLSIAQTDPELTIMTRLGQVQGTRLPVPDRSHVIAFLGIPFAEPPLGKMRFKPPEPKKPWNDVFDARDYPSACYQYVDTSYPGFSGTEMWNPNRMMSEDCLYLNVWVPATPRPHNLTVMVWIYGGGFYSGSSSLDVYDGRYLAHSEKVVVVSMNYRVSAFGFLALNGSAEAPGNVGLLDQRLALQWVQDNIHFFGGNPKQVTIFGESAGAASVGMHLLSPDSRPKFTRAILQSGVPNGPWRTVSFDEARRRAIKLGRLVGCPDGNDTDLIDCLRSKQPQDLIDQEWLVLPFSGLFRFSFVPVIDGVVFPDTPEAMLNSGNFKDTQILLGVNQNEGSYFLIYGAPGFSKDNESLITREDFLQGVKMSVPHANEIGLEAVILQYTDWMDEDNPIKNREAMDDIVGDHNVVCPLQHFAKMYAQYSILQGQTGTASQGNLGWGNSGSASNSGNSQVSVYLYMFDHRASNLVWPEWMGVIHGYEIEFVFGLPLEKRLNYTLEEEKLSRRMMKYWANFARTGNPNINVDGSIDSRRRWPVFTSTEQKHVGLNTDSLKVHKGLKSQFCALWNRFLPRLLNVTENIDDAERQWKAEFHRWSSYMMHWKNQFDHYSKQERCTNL

O=C1c2c(O)cc(OCCCCCN3CCCCC3)cc2OC2C=CC=CC12 (centres undefined)
IC50 [1]: 469 nM

O=C1[C@H]2Cc3c([nH]c4ccccc34)[C@@H](c3ccc4c(c3)OCO4)N2C(=O)CN1CCC1CCN(Cc2ccccc2)CC1
IC50 [2]: 150 nM
IC50 [3]: 30 nM

c1ccc2oc(CNCCCCCCCNc3c4c(cc5ccccc35)CCCC4)cc2c1
Activity [4]: 63%
IC50 [5]: 1350 nM
IC50 [6]: 0.86 nM

O=c1[nH]c(CNCCC2CCN(Cc3ccccc3)CC2)nc2c1cnn2C1CCCC1
IC50 [7]: 380 nM
IC50 [8]: 5800 nM
IC50 [9]: 290 nM
